{"source": "patent US20080293674A1", "about": "“Azinyl Imidazoazine and Azinyl Carboxamide” (priority 2004, published 2008)", "key": {"Aphis gossypii": {"tested_on": "Aphis gossypii", "experiment": "Aphis gossypii test (cotton leaf immersion)", "format": "in vivo", "settings": "144 h, after 6 days at a concentration of 100 ppm, cotton leaves (Gossypium hirsutum), read-out: death rate", "description": "After the desired time the death rate was determined in %, where 100% means that all aphids were killed; 0% means that no aphids were killed"}, "Myzus persicae": {"tested_on": "Myzus persicae", "experiment": "Myzus test (spray treatment)", "format": "in vivo", "settings": "120 h, after 5 days at a concentration of 500 g/ha, read-out: death rate", "description": "After the desired time the death rate was determined in %, where 100% means that all aphids were killed; 0% means that no aphids were killed."}, "[1]": {"settings": "China cabbage leaves (Brassica pekinensis)"}}, "note": "Where two headings read alike, the source gives them in different places."}
{"smiles": "FC(F)(F)c1ccncc1-c1ncc2ccccn12", "note": "[Example 1, 3-(4-trifluoromethylpyridin-3-yl)-imidazo[1,5-a]pyridine]", "values": [{"measurement": "pest or weed control at 100 ppm", "setting": "Aphis gossypii", "value": "≥ 80", "unit": "%"}, {"measurement": "pest or weed control at 500 g/ha", "setting": "Myzus persicae; [1]", "value": "≥ 80", "unit": "%"}]}
{"smiles": "FC(F)(F)c1ccncc1-c1nc(Br)c2ccccn12", "note": "[Example 3, 1-bromo-3-(4-trifluoromethylpyridin-3-yl)-imidazo[1,5-a]pyridine]", "values": [{"measurement": "pest or weed control at 500 g/ha", "setting": "Myzus persicae; [1]", "value": "≥ 80", "unit": "%"}]}
{"smiles": "FC(F)(F)c1ccncc1-c1nc(Cl)c2ccccn12", "note": "[Example 4, 1-chloro-3-(4-trifluoromethylpyridin-3-yl)-imidazo[1,5-a]pyridine]", "values": [{"measurement": "pest or weed control at 100 ppm", "setting": "Aphis gossypii", "value": "≥ 80", "unit": "%"}, {"measurement": "pest or weed control at 500 g/ha", "setting": "Myzus persicae; [1]", "value": "≥ 80", "unit": "%"}]}
{"smiles": "O=Cc1nc(-c2cnccc2C(F)(F)F)n2ccccc12", "note": "[Example 5, 3-(4-trifluoromethylpyridin-3-yl)-imidazo[1,5-a]pyridine-1-carboxaldehyde]", "values": [{"measurement": "pest or weed control at 100 ppm", "setting": "Aphis gossypii", "value": "≥ 80", "unit": "%"}, {"measurement": "pest or weed control at 500 g/ha", "setting": "Myzus persicae; [1]", "value": "≥ 80", "unit": "%"}]}
{"smiles": "CO/N=C/c1nc(-c2cnccc2C(F)(F)F)n2ccccc12", "note": "[Example 6, 1-methoximinomethyl-3-(4-trifluoromethylpyridin-3-yl)-imidazo[1,5-a]-pyridine]", "values": [{"measurement": "pest or weed control at 100 ppm", "setting": "Aphis gossypii", "value": "≥ 80", "unit": "%"}, {"measurement": "pest or weed control at 500 g/ha", "setting": "Myzus persicae; [1]", "value": "≥ 80", "unit": "%"}]}
{"smiles": "FC(F)(F)c1ccncc1-c1nc(-c2cccc(Cl)c2)c2ccccn12", "note": "[Example 7, 1-(3-chlorophenyl)-3-(4-trifluoromethylpyridin-3-yl)-imidazo[1,5-a]-pyridine]", "values": [{"measurement": "pest or weed control at 500 g/ha", "setting": "Myzus persicae; [1]", "value": "≥ 80", "unit": "%"}]}
{"smiles": "FC(F)(F)c1ccncc1-c1nc(C#Cc2ccccc2)c2ccccn12", "note": "[Example 8, 1-(phenylethynyl)-3-(4-trifluoromethylpyridin-3-yl)-imidazo[1,5-a]-pyridine]", "values": [{"measurement": "pest or weed control at 100 ppm", "setting": "Aphis gossypii", "value": "≥ 80", "unit": "%"}, {"measurement": "pest or weed control at 500 g/ha", "setting": "Myzus persicae; [1]", "value": "≥ 80", "unit": "%"}]}
{"smiles": "FC(F)(F)c1cc(Cl)c2c(Cl)nc(-c3cnccc3C(F)(F)F)n2c1", "note": "[Example 38]", "values": [{"measurement": "pest or weed control at 100 ppm", "setting": "Aphis gossypii", "value": "≥ 80", "unit": "%"}, {"measurement": "pest or weed control at 500 g/ha", "setting": "Myzus persicae; [1]", "value": "≥ 80", "unit": "%"}]}
{"smiles": "FC(F)(F)c1ccncc1-c1nc(CN(Cc2ccccc2)Cc2ccccc2)c2ccccn12", "note": "[Example 124, 1-(dibenzylaminomethyl)-3-(4-trifluoromethylpyridin-3-yl)-imidazo[1,5-a]pyridine]", "values": [{"measurement": "pest or weed control at 100 ppm", "setting": "Aphis gossypii", "value": "≥ 80", "unit": "%"}, {"measurement": "pest or weed control at 500 g/ha", "setting": "Myzus persicae; [1]", "value": "≥ 80", "unit": "%"}]}
{"smiles": "O=C(O)c1nc(-c2cnccc2C(F)(F)F)n2ccccc12", "note": "[Example 126, 3-(4-trifluoromethylpyridin-3-yl)-imidazo[1,5-a]pyridine-1-carboxylic acid]", "values": [{"measurement": "pest or weed control at 100 ppm", "setting": "Aphis gossypii", "value": "≥ 80", "unit": "%"}, {"measurement": "pest or weed control at 500 g/ha", "setting": "Myzus persicae; [1]", "value": "≥ 80", "unit": "%"}]}
{"smiles": "FC(F)(F)c1ccncc1-c1nc(/C=C/c2ccccc2)c2ccccn12", "note": "[Example 127, 1-(phenylvinylidene)-3-(4-Trifluoromethylpyridin-3-yl)-imidazo[1,5-a]-pyridine]", "values": [{"measurement": "pest or weed control at 100 ppm", "setting": "Aphis gossypii", "value": "≥ 80", "unit": "%"}, {"measurement": "pest or weed control at 500 g/ha", "setting": "Myzus persicae; [1]", "value": "≥ 80", "unit": "%"}]}
{"smiles": "CSc1nc(-c2cnccc2C(F)(F)F)n2ccccc12", "note": "[Example 128]", "values": [{"measurement": "pest or weed control at 500 g/ha", "setting": "Myzus persicae; [1]", "value": "≥ 80", "unit": "%"}]}
{"smiles": "Cc1cc(C)nc(CNC(=O)c2cnccc2C(F)(F)F)n1", "note": "[II-11, N-(4,6-Dimethylpyrimidin-2-ylmethyl)-4-trifluoromethyl-nicotinamide]", "values": [{"measurement": "pest or weed control at 500 g/ha", "setting": "Myzus persicae; compounds of structure (II-b)", "value": "≥ 90", "unit": "%"}]}
{"smiles": "O=C(NCc1ncccn1)c1cnccc1C(F)(F)F", "note": "[II-27, N-Pyrimidin-2-ylmethyl-4-trifluoromethyl-nicotinamide]", "values": [{"measurement": "pest or weed control at 500 g/ha", "setting": "Myzus persicae; compounds of structure (II-b)", "value": "≥ 90", "unit": "%"}]}
{"smiles": "Cc1cnc(CNC(=O)c2cnccc2C(F)(F)F)cn1", "note": "[II-29]", "values": [{"measurement": "pest or weed control at 500 g/ha", "setting": "Myzus persicae; compounds of structure (II-b)", "value": "≥ 90", "unit": "%"}]}
{"smiles": "Cc1cc(CNC(=O)c2cnccc2C(F)(F)F)nc(C)n1", "note": "[II-38, N-(2,6-Dimethylpyrimidin-4-ylmethyl)-4-trifluoromethyl nicotinamide]", "values": [{"measurement": "pest or weed control at 500 g/ha", "setting": "Myzus persicae; [1]", "value": "≥ 80", "unit": "%"}, {"measurement": "pest or weed control at 500 g/ha", "setting": "Myzus persicae; compounds of structure (II-b)", "value": "≥ 90", "unit": "%"}]}
